Results on 15 compounds are retold here after PubChem BioAssay (NCI).

Common to all, as to experiment: inhibition of tumour cell growth, NCI panel, 48 h
In experiment [1] the test system is A549 NSCLC.
Experiment [2] concerns CCRF-CEM leukemia.
The subject of experiment [3] is HCC-2998 colon.
Experiment [4] deals with HL-60(TB) leukemia.
Experiment [5] deals with HOP-92 NSCLC.
The test system of experiment [6] is NCI-H226 lung.
Experiment [7] has as its system RXF 393 renal.
The test system of experiment [8] is SK-MEL-5 melanoma.
The test system of experiment [9] is SNB-75 CNS.
The subject of experiment [10] is NCI-H460 lung.

“And” between values parts separate entries of the source, which are not always exact repeats. Equal entries are not always repeated.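 Tested at 5 concentrations; 48 h exposure; 96-well plates; endpoints linearly interpolated, else capped at highest concentration. GI50: concentration for 50% inhibition of growth. The concentration for full growth arrest is given as TGI.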

Consider `C=CCO/N=C/c1cc(NC(=S)c2ccoc2C)ccc1Cl`, for which the TGI was more than 100 µM in experiment [1]; more than 100 µM in experiment [2]; 24 µM in experiment [3]; 46 µM in [4]; 42.3 µM in experiment [5]; 41.3 µM in experiment [6]. Also, the TGI amounted to 65.8 µM in [7], 27.6 µM in experiment [8] and 38.2 µM in experiment [9].

As for `CCCCCCCCCCCCCCCCCCNC(=O)[C@H]1CSC(c2cccs2)N1` (some centres undefined), the GI50 in experiment [1] is 1.69 µM; in experiment [2], 0.372 µM; in experiment [3], 1.06 µM; in experiment [4], 0.919 µM; in experiment [5], 2.38 µM; in [6], 1.05 µM. Moreover, the values for the GI50 in [10], in experiment [7] and in [9] were 0.754 µM, 0.973 µM and 0.811 µM, respectively. Further, the TGI in [1] was more than 50 µM; in experiment [2], 2.03 µM; in experiment [3] it was 2.31 µM; in [4], 2.06 µM; in experiment [5] it was 14.2 µM; in experiment [6], 2.01 µM. In addition, the TGI in experiment [10] came to 1.69 µM; in experiment [7] it was 1.72 µM; in experiment [9], 1.58 µM.

Take `CCOC(=O)c1ccc(N[C@@H]2c3cc4c(cc3C(C3=CC(=O)C(=O)C(OC)=C3)[C@H]3C(=O)OCC32)OCO4)cc1` (some centres undefined): the TGI in experiment [1] was 5.67 µM; in experiment [2], more than 28.1 µM; in [3], 10.9 µM; in [4] it was more than 19.7 µM; in [5], 25 µM; in experiment [10], 5.84 µM. Further, the TGI in experiment [7] came out at 16.8 µM; in [8], 11.7 µM; in [9], 9.04 µM.

Turning to `C=C(CN1CCc2ccccc2C1)c1ccc(C(=O)Nc2ccccc2N)cc1`, the GI50 in experiment [1] was 2.05 µM; in experiment [2], 1.96 µM; in [3], 0.0899 µM; in experiment [4] it was 3.18 µM; in experiment [5], 3.37 µM; in experiment [6] it was 1.49 µM. For the same compound, the results for the GI50 in experiment [10], in [7] and in [8] were 3.06 µM, 1.37 µM and 1.61 µM, respectively. Also, the TGI in experiment [1] is more than 50 µM; in experiment [2], 12.7 µM; in experiment [3], 0.379 µM; in experiment [4], more than 12.3 µM; in experiment [5], 15.8 µM; in experiment [6], 9.2 µM. The values for the TGI in [10], in experiment [7] and in experiment [8] were more than 32 µM, 4.76 µM and 6.86 µM, respectively.

`CC(=O)N[C@H](C(=O)N[C@@H](CCCNC(=N)N)C(=O)N[C@@H](CCCCN)C(=O)N[C@@H](CCCNC(=N)N)C(=O)N[C@]1(C)CCCCCC/C=C\CCC[C@@](C)(C(=O)N[C@@H](CCCNC(=N)N)C(=O)N[C@@H](CCC(=O)O)C(=O)N[C@@H](CC(C)C)C(=O)N[C@H](C(=O)N[C@@H](CCC(=O)O)C(N)=O)C(C)C)NC(=O)[C@H](CCC(N)=O)NC(=O)[C@H](CC(C)C)NC(=O)[C@H](CC(C)C)NC(=O)[C@H](CCCNC(=N)N)NC(=O)[C@H](CCCNC(=N)N)NC(=O)[C@H](CC(C)C)NC1=O)C(C)C`: the GI50 in experiment [1] was 3.4 µM; in experiment [2], 7.28 µM; in experiment [3], 4.65 µM; in [4] it was 5.19 µM; in experiment [5], 1.73 µM; in experiment [6], 2.43 µM. Also, the GI50 in experiment [7] is 1.34 µM; in experiment [8] it was 1.1 µM; in experiment [9] it was 1.99 µM. Moreover, the TGI was found to be 27.6 µM in experiment [1]; 26.7 µM in experiment [2]; 46.6 µM in experiment [3]; 18.5 µM in experiment [4]; 8.43 µM in experiment [5]; 28.7 µM in [6]. Besides, the figures for the TGI in experiment [7], in [8] and in experiment [9] were 4.77 µM, 2.62 µM and 13.1 µM, respectively.

Turning to `CC1(Cc2ccccc2)NC(=S)NC1=O` (centres undefined), the TGI in experiment [1], in [3], in [4], in experiment [5], in experiment [6] and in [10] was more than 100 µM in each case. Moreover, the TGI in [7] and in experiment [9] was more than 100 µM throughout.

With `c1ccc2nc3c(cc4ccccn43)nc2c1`, the GI50 in experiment [1] is 77.4 µM; in experiment [2] it was more than 100 µM; in [3], 61.8 µM; in [4] it was more than 100 µM; in experiment [5], 30.9 µM; in experiment [10], more than 100 µM. For the same compound, the GI50 was 30.1 µM in experiment [7] and 25.8 µM in experiment [8]. Besides, the TGI in experiment [1], in experiment [2], in experiment [3], in [4], in experiment [5] and in experiment [10] was more than 100 µM in each case. Moreover, the TGI in experiment [7] and in experiment [8] was more than 100 µM throughout.

`O=C(c1ccc2ccccc2c1)c1c(C(F)(F)F)n([O-])c2ccc(Cl)cc2[n+]1=O`: the GI50 in experiment [1] was 1.71 µM; in [3], 1.26 µM; in [4] it was 1.59 µM; in experiment [5] it was 0.518 µM; in experiment [6], 1.82 µM; in experiment [10] it was 1.75 µM. Further, the GI50 in experiment [7] is 0.425 µM; in experiment [8] it was 1.36 µM; in experiment [9], 1.3 µM. The TGI is 3.21 µM in [1]; 2.6 µM in experiment [3]; 3.29 µM in experiment [4]; 2.03 µM in [5]; 3.56 µM in experiment [6]; 3.34 µM in [10]. Further, the figures for the TGI in experiment [7], in [8] and in [9] were 1.4 µM, 2.65 µM and 2.57 µM, respectively.

As to `CC1(C)CC[C@H](C2=CC(=O)c3c(O)ccc(O)c3C2=O)O1`, the GI50 was 9.2 µM and 3.48 µM and 3.31 µM in experiment [1]; 0.666 µM and 0.114 µM in [2]; 0.505 µM and 0.131 µM in experiment [4]; 1.75 µM and 1.14 µM and 0.263 µM in [5]; 5.01 µM and 1.79 µM and 0.611 µM in experiment [6]; 5.14 µM and 1.61 µM and 1.45 µM in [10]. Moreover, the GI50 in experiment [7] is 1.39 µM and 2.02 µM and 0.271 µM; in experiment [8], 1.65 µM and 1.36 µM and 0.464 µM; in experiment [9], 8.53 µM and 2.87 µM and 0.95 µM. Also, the TGI in experiment [1] is 30 µM and 10 µM; in experiment [4], 1.36 µM and 0.442 µM; in experiment [5], 3.39 µM and 2.5 µM and 0.725 µM; in experiment [10] it was 19.5 µM and 3.36 µM and 3.86 µM; in experiment [7] it was 2.93 µM and 3.82 µM and 0.604 µM; in [8], 4.08 µM and 2.68 µM and 1.22 µM. Further, the TGI in [9] is 27.7 µM and 4.02 µM.

Turning to `OC(CN1CC1)C(O)CN1CC1` (centres undefined), the GI50 in experiment [1], in experiment [2], in experiment [4], in experiment [5], in experiment [6] and in experiment [10] was more than 50 µg/mL throughout. Also, the GI50 in experiment [7] and in [8] was more than 50 µg/mL each time. Moreover, the TGI in experiment [1], in experiment [2], in experiment [4], in experiment [5], in experiment [6] and in experiment [10] was more than 50 µg/mL throughout. Besides, the TGI in [7] and in experiment [8] was more than 50 µg/mL each time.

As to `NC(=O)/C=C/C(=O)O`, the TGI in experiment [1], in [2], in [4], in [5], in experiment [6] and in [10] was more than 5000 µM in each case. Further, the TGI in experiment [7], in experiment [8] and in [9] was more than 5000 µM each time.

Regarding `OC(c1ccc(Br)cc1)(c1cccs1)C1CC1` (centres undefined), the TGI was more than 100 µM in experiment [1]; 91.8 µM in experiment [2]; 55.6 µM in experiment [3]; 52.7 µM in experiment [4]; 37.7 µM in experiment [5]; 57.8 µM in experiment [10]. The results for the TGI in experiment [7], in experiment [8] and in experiment [9] were 39.1 µM, 33 µM and 66.2 µM, respectively.

With `CCCCCCCCCCCCCC(=O)OCC1OC(=O)CC1O` (centres undefined), the TGI was more than 100 µM in experiment [1]; more than 100 µM in experiment [2]; more than 100 µM in [3]; more than 100 µM in experiment [4]; 40.2 µM in experiment [5]; more than 100 µM in experiment [10]. Further, the TGI in [7], in experiment [8] and in [9] was more than 100 µM each time.

Turning to `COc1ccccc1-c1cc(=O)c2ccc(C)nc2[nH]1`, the TGI in [1], in [2], in [3], in experiment [4], in experiment [5] and in experiment [6] was more than 100 µM throughout. In addition, the TGI in experiment [10], in [7] and in experiment [8] was more than 100 µM each time. Moreover, the GI50 in [4] is 73.8 µM; in experiment [10] it was 98.7 µM; in experiment [8], 51.6 µM.

On to `COC(=O)/C(C#N)=C1\CCC(C(=O)OC)N1C` (centres undefined), for which the TGI in experiment [1], in experiment [2], in experiment [3], in [4], in experiment [5] and in [10] was more than 100 µM throughout. Besides, the TGI in experiment [7], in [8] and in [9] was more than 100 µM each time.
